Data from article PMC10693969 (Parasites, Hosts and Diseases, 2023).
Several values for one entry are separate records, joined by “and”; a condition that tells them apart may be missing. Equal values may be shown once. Read-outs that look alike come from different tables or passages of the source.

Columns and labels:
[1] = system: Naegleria fowleri trophozoites (Carter NF69 strain, ATCC 30215); experiment: In vitro anti-N. fowleri activity, trophozoite viability; format: cell-based; conditions: for IC50: mean±SD of 3 independent experiments; for SI, sensitivity index (CC50 C6 glial cells / IC50 N. fowleri): ratio CC50 C6 glial cells / IC50 N. fowleri
[2] = system: A. castellanii (ATCC-30868) trophozoites; experiment: In vitro anti-Acanthamoeba activity, A. castellanii trophozoite viability; format: cell-based; conditions: for IC50: mean±SD of 3 independent experiments; for antiamoebic activity against A. castellanii (in words): in vitro; for SI, sensitivity index (CC50 C6 glial cells / IC50 A. castellanii): ratio CC50 C6 glial cells / IC50 A. castellanii
[3] = system: A. polyphaga (ATCC-30461) trophozoites; experiment: In vitro anti-Acanthamoeba activity, A. polyphaga trophozoite viability; format: cell-based; conditions: for IC50: mean±SD of 3 independent experiments; for antiamoebic activity against A. polyphaga (in words): in vitro; for SI, sensitivity index (CC50 C6 glial cells / IC50 A. polyphaga): ratio CC50 C6 glial cells / IC50 A. polyphaga
[4] = Cytotoxicity against C6 glial cells; format: cell-based, rat; conditions: rat, C6 glial cells
[5] = Naegleria fowleri, ATCC30215, 48 h, read-out: N. fowleri (IC50 ±SD, μM), trophozoites, 0–400 μM, 37°C, 48 h
[6] = Acanthamoeba castellanii, ATCC30868, 48 h, read-out: A. castellanii (IC50 ±SD, μM), trophozoites, 0–400 μM, 25°C, 48 h
[7] = trophozoites, listed as berberine
[8] = Acanthamoeba polyphaga, ATCC30461, 48 h, read-out: A. polyphaga (IC50 ±SD, μM), trophozoites, 0–400 μM, 25°C, 48 h
[9] = read-out: N. fowleri (IC50 ±SD), trophozoites, 0–400 μM, 37°C, 48 h

SMILES | IC50 [1, 5] [µM] | IC50 [2, 6] [µM] | antiamoebic activity against A. castellanii (in words) ([2]; trophozoites) | IC50 [3, 8] [µM] | antiamoebic activity against A. polyphaga (in words) ([3]; trophozoites) | CC50 [4] [µM] | SI, sensitivity index (CC50 C6 glial cells / IC50 A. polyphaga) [3] | SI, sensitivity index (CC50 C6 glial cells / IC50 N. fowleri) [1] | SI, sensitivity index (CC50 C6 glial cells / IC50 A. castellanii) [2] | also measured
COc1ccc2cc3[n+](cc2c1OC)CCc1cc2c(cc1-3)OCO2 [Berberine, berberine] | > 260 | > 260 | did not affect | > 260 | did not affect | 159.7 ± 1.23 |  |  |  | antiamoebic activity against N. fowleri (in words) ([1]; trophozoites, in vitro): did not affect; antiamoebic activity against A. castellanii (in words) [2, 7]: did not exhibit potential or selective antiamoebic activity; antiamoebic activity against A. polyphaga (in words) [3, 7]: did not exhibit potential or selective antiamoebic activity
O=c1c(O)c(-c2ccc(O)c(O)c2)oc2cc(O)cc(O)c12 [Quercetin, quercetin] | > 330 | > 330 | did not exhibit potential or selective antiamoebic activity | 320.8 ± 0.33 | did not exhibit potential or selective antiamoebic activity | > 330 | >1.03 |  |  | 
C[C@@H]1O[C@@H](Oc2c(-c3ccc(O)cc3)oc3cc(O)cc(O)c3c2=O)[C@H](O)[C@H](O)[C@H]1O [Afzelin, afzelin] | > 230 | > 230 | did not exhibit potential or selective antiamoebic activity | > 230 | did not exhibit potential or selective antiamoebic activity | > 230 |  |  |  | 
O=c1c(-c2ccc(O)cc2)coc2cc(O)cc(O)c12 [Genistein, genistein] | 157.4 ± 0.57 | > 370 | did not exhibit potential or selective antiamoebic activity | > 370 | did not exhibit potential or selective antiamoebic activity | 104 ± 1.08 |  | 0.66 |  | 
C=C1CC/C=C(\C)CC[C@@H]2[C@@H]1CC2(C)C [(−)-trans-Caryophyllene, (−)-trans-caryophyllene] | 84.78 ± 0.65 | 65.1 ± 1.42 |  | 44.8 ± 1.41 |  | 220 ± 2.42 | 4.92 | 2.60 | 3.39 | 
O=c1c(O)c(-c2ccc(O)cc2)oc2cc(O)cc(O)c12 [Kaempferol, kaempferol] | < 30 |  |  | < 50 |  | 333.8 ± 0.99 | 11.67 | 12.00 | 15.43 | SI, sensitivity index (CC50 C6 glial cells / IC50 N. fowleri) ([1]; listed as kaempferol): > 7 and > 8; IC50 [1, 9]: 27.8 ± 0.33 µM; IC50 ([1]; read-out: N. fowleri (IC50 ±SD), trophozoites, 0–400 μM, 37°C, 48 h, listed as kaempferol): < 40 µM; SI, sensitivity index (CC50 C6 glial cells / IC50 A. castellanii) ([2]; listed as kaempferol): > 8; IC50 ([2]; read-out: A. castellanii (IC50 ±SD), trophozoites, 0–400 μM, 25°C, 48 h): 21.6 ± 1.28 µM; IC50 ([2]; read-out: A. castellanii (IC50 ±SD), trophozoites, 0–400 μM, 25°C, 48 h, listed as kaempferol): < 40 µM; SI, sensitivity index (CC50 C6 glial cells / IC50 A. polyphaga) ([3]; listed as kaempferol): > 8; IC50 ([3]; read-out: A. polyphaga (IC50 ±SD), trophozoites, 0–400 μM, 25°C, 48 h): 28.6 ± 1.17 µM; IC50 ([3]; read-out: A. polyphaga (IC50 ±SD), trophozoites, 0–400 μM, 25°C, 48 h, listed as kaempferol): < 40 µM
O=c1cc(-c2ccc(O)c(O)c2)oc2cc(O)cc(O)c12 [Luteolin, luteolin] | < 30 | > 350 | not effective | 40.2 ± 0.47 | effective | > 350 |  |  |  | IC50 [1, 9]: 27.4 ± 0.61 µM
CCCCCCCCCCCCCCCCOP(=O)([O-])OCC[N+](C)(C)C [Miltefosine, miltefosine, reference compound] | 153.3 ± 1.3 | 213.2 ± 1.22 |  | 227.5 ± 0.36 |  | > 245 | >1.08 | >1.60 | >1.15 | 
